From ChEMBL document CHEMBL1153182, “Novel enoyl-ACP reductase (FabI) potential inhibitors of Escherichia coli from Chinese medicine monomers” (Bioorg Med Chem Lett, 2010) come the findings set out here.

Converted amounts (≈) assume the structure as drawn. The source made the active and inactive calls. The rule behind the calls is not given here. Bounds are passed on as bounds.

Assay [1] has as its target T1, Enoyl-[acyl-carrier-protein] reductase [NADH] FabI (Escherichia coli K-12) (UniProt P0AEK4).
T1 sequence (whole entry): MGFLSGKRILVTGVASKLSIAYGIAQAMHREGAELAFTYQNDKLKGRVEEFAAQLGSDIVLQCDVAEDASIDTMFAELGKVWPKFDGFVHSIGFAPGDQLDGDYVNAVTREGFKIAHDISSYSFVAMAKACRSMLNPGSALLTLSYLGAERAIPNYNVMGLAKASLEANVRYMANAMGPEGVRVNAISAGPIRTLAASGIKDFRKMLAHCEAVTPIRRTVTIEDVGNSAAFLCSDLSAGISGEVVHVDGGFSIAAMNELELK
As to the kind of experiment: Inhibition of Escherichia coli MG1655 enoyl-ACP reductase overexpressed in Escherichia coli M15 assessed as oxidation of NADH to NAD+ at 5 uM after 5 mins.

Assay [2] has as its system Escherichia coli. As to the kind of experiment: Antibacterial activity against Escherichia coli MG1655. It is filed as functional.
The subject of assay [3] is Escherichia coli. As to the kind of experiment: Antibacterial activity against Escherichia coli M15. In kind it is functional.
Assay [4] concerns Escherichia coli. Nature of the assay: Antibacterial activity against Escherichia coli M15 containing pQE30 expression vector. It is filed as functional.
Assay [5] has as its system Escherichia coli. Nature of the assay: Antibacterial activity against fabI-overexpressing Escherichia coli M15. It is filed as functional.
For assay [6], the target named is T2, Enoyl-[acyl-carrier-protein] reductase [NADH] FabI (Escherichia coli K-12, UniProt P0AEK4).
T2 sequence (P0AEK4 whole entry): T1 sequence (whole entry)
Nature of the assay: Inhibition of Escherichia coli MG1655 enoyl-ACP reductase overexpressed in Escherichia coli M15 assessed as oxidation of NADH to NAD+ after 5 mins.

Assay [7] deals with Escherichia coli. As to the kind of experiment: Ratio of MIC90 for fabI-overexpressing Escherichia coli M15 to MIC90 for Escherichia coli M15 containing pQE30 expression vector. It is filed as functional.
Assay [8] addresses T1, Enoyl-[acyl-carrier-protein] reductase [NADH] FabI (Escherichia coli K-12). As to the kind of experiment: Uncompetitive inhibition of Escherichia coli MG1655 enoyl-ACP reductase overexpressed in Escherichia coli M15 assessed as oxidation of NADH to NAD+ after 5 mins by Lineweaver-Burke plot.
Assay [9] has as its system Escherichia coli. Nature of the assay: Ratio of MIC90 for fabI-overexpressing Escherichia coli M15 to MIC90 for Escherichia coli M15. It is filed as functional.

Turning to `CC(C)=CCOc1c2occc2cc2ccc(=O)oc12`, the result in assay [1] was Active.

Turning to `OC[C@H]1O[C@@H](Oc2cc(O)cc(/C=C/c3ccc(O)cc3)c2)[C@H](O)[C@@H](O)[C@@H]1O`, in assay [1], the outcome was Active.

For `O=C(N[C@H](CO)[C@H](O)c1ccc([N+](=O)[O-])cc1)C(Cl)Cl` [CHLORAMPHENICOL], the MIC90 in assay [2], in [3], in assay [4] and in assay [5] was 8 µg/mL (≈ 24.8 µM) throughout.

Take `COc1cc(/C=C/C(=O)CC(=O)/C=C/c2ccc(O)c(OC)c2)ccc1O` [CURCUMIN]: the MIC90 in [2] is 73.7 µg/mL (≈ 200 µM); in assay [3] it was 73.7 µg/mL (≈ 200 µM); in assay [4], 73.7 µg/mL (≈ 200 µM); in assay [5], greater than 500 µg/mL. In addition, in assay [6], the Ki was found to be 15 µM. Moreover, the Ratio in assay [7] and in [9] was 7 in each case. The outcome in assay [8] was Active.

In the case of `CC[C@H]1OC(=O)[C@H](C)[C@@H](O[C@H]2C[C@@](C)(OC)[C@@H](O)[C@H](C)O2)[C@H](C)[C@@H](O[C@@H]2O[C@H](C)C[C@H](N(C)C)[C@H]2O)[C@](C)(O)C[C@@H](C)C(=O)[C@H](C)[C@@H](O)[C@]1(C)O` [ERYTHROMYCIN], the MIC90 in assay [2], in assay [3], in assay [4] and in assay [5] was 16 µg/mL (≈ 21.8 µM) throughout.

As for `O=c1c(-c2ccc(O)cc2)coc2cc(O)cc(O)c12` [GENISTEIN], the MIC90 in assay [2] was 378 µg/mL (≈ 1400 µM); in assay [3], 378 µg/mL (≈ 1400 µM); in [4], 378 µg/mL (≈ 1400 µM); in assay [5] it was greater than 500 µg/mL. Further, the outcome in [1] was Active.

Regarding `O=c1cc(-c2ccc(O)c(O)c2)oc2cc(O)cc(O)c12` [LUTEOLIN], the Ki in assay [6] was 7.05 µM. In addition, the outcome in [8] was Active.

Consider `CO[C@H]1/C=C/O[C@@]2(C)Oc3c(C)c(O)c4c(O)c(c(/C=N/N5CCN(C)CC5)c(O)c4c3C2=O)NC(=O)/C(C)=C\C=C\[C@H](C)[C@H](O)[C@@H](C)[C@@H](O)[C@@H](C)[C@H](OC(C)=O)[C@@H]1C` [RIFAMPIN], for which the MIC90 in [2], in assay [3], in assay [4] and in assay [5] was 128 µg/mL (≈ 156 µM) in each case.

`CN[C@@H]1[C@H](O)[C@H](NC)[C@H]2O[C@@]3(O)C(=O)C[C@@H](C)O[C@H]3O[C@@H]2[C@H]1O` [SPECTINOMYCIN]: the MIC90 in assay [2], in assay [3], in assay [4] and in assay [5] was 20 µg/mL (≈ 60.2 µM) throughout.

For `Oc1cc(Cl)ccc1Oc1ccc(Cl)cc1Cl` [TRICLOSAN], the MIC90 was 2.9 µg/mL (≈ 10 µM) in assay [2], 2.9 µg/mL (≈ 10 µM) in assay [3], 2.9 µg/mL (≈ 10 µM) in assay [4] and greater than 500 µg/mL in assay [5].

For GENTAMICIN, the MIC90 in [2], in [3], in assay [4] and in assay [5] was 8 µg/mL each time.
